The text below walks through data of patent US20230278995A1, “1,3,4-OXADIAZOLE DERIVATIVE COMPOUNDS AS HISTONE DEACETYLASE 6 INHIBITOR, AND THE PHARMACEUTICAL COMPOSITION COMPRISING THE SAME” (CHONG KUN DANG PHARMACEUTICAL CORP., priority 2020, published 2023).

One assay concerns the target T1, human recombinant HDAC1 (Homo sapiens, UniProt Q13547).
T1 construct: purchased Enzo Life Sciences, Inc. BML-SE456
Briefly: HDAC enzyme activity inhibition assay (HDAC Fluorimetric Drug Discovery Kit), HDAC1. The assay is classed as biochemical. The conditions noted are these: human recombinant HDAC1, Fluor de Lys-SIRT1 substrate, 30° C. 60 minutes. On the procedure: (§1) For the HDAC1 enzyme activity test, human recombinant HDAC1 (BML-SE456) was used as an enzyme source and Fluor de Lys©-SIRT1 (BNL-K1177) was used as a substrate. After dispensing 5-fold diluted compounds into a 96-well plate, 0.3 μg of enzyme and 10 μM substrate were added to each well of the plate and allowed to react at 30° C. for 60 minutes. Next, Fluor de Lys© Developer II (BML-K1176) was added and reacted for 30 minutes to complete the reaction, and then the fluorescence values (Ex 360, Em 460) were measured using a multi-plate reader (Flexstation 3, Molecular Device). The HDAC6 enzymes were tested using human recombinant HDAC6 (382180) from Calbiochem Inc., according to the same protocol as the HDAC1 enzyme activity test method. With respect to the final result values, respective IC50 values were calculated using GraphPad Prism 4.0 program (Table 2).

A further assay deals with T2, human recombinant HDAC6 (Homo sapiens, UniProt Q9UBN7).
T2 construct: purchased Calbiochem Inc. 382180
T2 sequence (Q9UBN7 1-1215): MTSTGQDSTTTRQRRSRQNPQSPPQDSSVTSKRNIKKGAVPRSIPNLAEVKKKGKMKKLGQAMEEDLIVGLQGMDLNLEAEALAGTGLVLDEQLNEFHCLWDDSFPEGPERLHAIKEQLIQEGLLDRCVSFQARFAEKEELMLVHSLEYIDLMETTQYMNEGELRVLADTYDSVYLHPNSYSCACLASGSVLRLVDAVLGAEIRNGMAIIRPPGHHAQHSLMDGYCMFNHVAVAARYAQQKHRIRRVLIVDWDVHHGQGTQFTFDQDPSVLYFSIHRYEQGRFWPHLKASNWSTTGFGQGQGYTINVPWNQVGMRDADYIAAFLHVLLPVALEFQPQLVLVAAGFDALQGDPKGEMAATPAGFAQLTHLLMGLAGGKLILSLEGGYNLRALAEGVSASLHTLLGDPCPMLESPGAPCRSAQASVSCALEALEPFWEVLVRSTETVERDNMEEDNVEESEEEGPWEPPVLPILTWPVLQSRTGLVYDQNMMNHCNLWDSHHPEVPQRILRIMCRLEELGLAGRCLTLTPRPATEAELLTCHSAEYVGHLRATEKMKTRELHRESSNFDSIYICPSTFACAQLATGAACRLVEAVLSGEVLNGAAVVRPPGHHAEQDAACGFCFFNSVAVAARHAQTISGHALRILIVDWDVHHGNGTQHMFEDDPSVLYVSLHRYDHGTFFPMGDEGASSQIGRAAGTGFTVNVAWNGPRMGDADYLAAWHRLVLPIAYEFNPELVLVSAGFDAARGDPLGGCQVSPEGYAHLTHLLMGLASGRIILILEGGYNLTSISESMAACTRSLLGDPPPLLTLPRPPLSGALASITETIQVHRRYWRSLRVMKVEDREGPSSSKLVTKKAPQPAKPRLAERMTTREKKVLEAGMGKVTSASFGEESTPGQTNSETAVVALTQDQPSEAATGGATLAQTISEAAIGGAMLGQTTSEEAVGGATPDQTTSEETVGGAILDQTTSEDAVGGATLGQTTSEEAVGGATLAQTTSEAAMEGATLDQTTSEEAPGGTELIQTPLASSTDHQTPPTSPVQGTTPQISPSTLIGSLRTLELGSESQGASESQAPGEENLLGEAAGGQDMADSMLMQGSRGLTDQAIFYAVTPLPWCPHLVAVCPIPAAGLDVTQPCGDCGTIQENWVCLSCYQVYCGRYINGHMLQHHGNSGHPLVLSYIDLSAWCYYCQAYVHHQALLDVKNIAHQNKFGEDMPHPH
Nature of the assay: HDAC enzyme activity inhibition assay (HDAC Fluorimetric Drug Discovery Kit), HDAC6. It counts as biochemical. The note with it: for HDAC6 selectivity (fold): HDAC1 vs HDAC6; for IC50: human recombinant HDAC6, same protocol as HDAC1. How it is done: as §1

T1 sequence (Q13547 whole entry): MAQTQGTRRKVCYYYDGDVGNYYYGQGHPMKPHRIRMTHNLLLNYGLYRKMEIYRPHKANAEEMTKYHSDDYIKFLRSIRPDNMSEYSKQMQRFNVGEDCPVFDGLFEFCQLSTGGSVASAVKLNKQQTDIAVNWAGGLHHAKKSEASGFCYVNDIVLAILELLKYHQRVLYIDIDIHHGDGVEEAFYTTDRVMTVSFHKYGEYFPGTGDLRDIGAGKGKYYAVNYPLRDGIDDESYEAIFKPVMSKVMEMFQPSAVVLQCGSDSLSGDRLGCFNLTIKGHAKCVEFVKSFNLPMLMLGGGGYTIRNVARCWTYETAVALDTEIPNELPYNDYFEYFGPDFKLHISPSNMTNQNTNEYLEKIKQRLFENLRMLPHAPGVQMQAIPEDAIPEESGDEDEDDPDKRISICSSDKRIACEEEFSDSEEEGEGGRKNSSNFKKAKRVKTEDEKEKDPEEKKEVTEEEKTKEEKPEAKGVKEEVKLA

As to `O=C(N(Cc1ccc(-c2nnc(C(F)F)o2)cc1F)c1ccccc1)C1(F)CCNCC1` [Compound 2865, N-(4-(5-(difluoromethyl)-1,3,4-oxadiazol-2-yl)-2-fluorobenzyl)-4-fluoro-N-phenylpiperidine-4-carboxamide 2,2,2-trifluoroacetate], the IC50 on human recombinant HDAC1 was greater than 30000 nM. On human recombinant HDAC6, the “HDAC6 selectivity (fold)” value is on record as 30 fold and the IC50 was determined as 1000 nM.

Turning to `CN1CCC(F)(C(=O)N(Cc2ccc(-c3nnc(C(F)F)o3)cc2F)c2ccccc2)CC1` [Compound 2866, N-(4-(5-(difluoromethyl)-1,3,4-oxadiazol-2-yl)-2-fluorobenzyl)-4-fluoro-1-methyl-N-phenylpiperidine-4-carboxamide], the IC50 is greater than 20000 nM at human recombinant HDAC1 and 134 nM at human recombinant HDAC6. Also, on human recombinant HDAC6, the “HDAC6 selectivity (fold)” value is 149 fold.

`CCN1CCC(F)(C(=O)N(Cc2ccc(-c3nnc(C(F)F)o3)cc2F)c2ccccc2)CC1` [Compound 2867, N-(4-(5-(difluoromethyl)-1,3,4-oxadiazol-2-yl)-2-fluorobenzyl)-1-ethyl-4-fluoro-N-phenylpiperidine-4-carboxamide]: the IC50 on human recombinant HDAC1 was greater than 20000 nM. Moreover, at human recombinant HDAC6, the “HDAC6 selectivity (fold)” value came to 97 fold and the IC50 turned out to be 204 nM.

On to `O=C(N(Cc1ccc(-c2nnc(C(F)F)o2)cc1F)c1ccccc1)C1(F)CCN(C2CCC2)CC1` [Compound 2868, 1-cyclobutyl-N-(4-(5-(difluoromethyl)-1,3,4-oxadiazol-2-yl)-2-fluorobenzyl)-4-fluoro-N-phenylpiperidine-4-carboxamide], for which the IC50 at human recombinant HDAC1 is greater than 20000 nM.

`O=C(N(Cc1ccc(-c2nnc(C(F)F)o2)cc1F)c1ccccc1)C1(F)CCN(C2COC2)CC1` [Compound 2869, N-(4-(5-(difluoromethyl)-1,3,4-oxadiazol-2-yl)-2-fluorobenzyl)-4-fluoro-1-(oxetan-3-yl)-N-phenylpiperidine-4-carboxamide]: the concentration for half-maximal inhibition (IC50) on human recombinant HDAC1 is greater than 50000 nM. At human recombinant HDAC6, the “HDAC6 selectivity (fold)” value came out at 464 fold and the IC50 was found to be 108 nM.

As for `CN1CCC(F)(C(=O)N(Cc2ccc(-c3nnc(C(F)F)o3)cn2)c2ccccc2)CC1` [Compound 2951, N-((5-(5-(difluoromethyl)-1,3,4-oxadiazol-2-yl)pyridin-2-yl)methyl)-4-fluoro-1-methyl-N-phenylpiperidine-4-carboxamide], the values for the IC50 on human recombinant HDAC1 and at human recombinant HDAC6 were 42600 nM and 74.7 nM, respectively. For the same molecule, on human recombinant HDAC6, the “HDAC6 selectivity (fold)” value is recorded as 569 fold.

On to `CC(C)N1CCC(F)(C(=O)N(Cc2ccc(-c3nnc(C(F)F)o3)cn2)c2ccccc2)CC1` [Compound 2952, N-((5-(5-(difluoromethyl)-1,3,4-oxadiazol-2-yl)pyridin-2-yl)methyl)-4-fluoro-1-isopropyl-N-phenylpiperidine-4-carboxamide], for which the IC50 at human recombinant HDAC1 is greater than 50000 nM. Moreover, at human recombinant HDAC6, the “HDAC6 selectivity (fold)” value is 504 fold and the IC50 is 99.1 nM.

For the molecule `O=C(N(Cc1ccc(-c2nnc(C(F)F)o2)cn1)c1ccccc1)C1(F)CCN(C2CCC2)CC1` [Compound 2953, 1-cyclobutyl-N-((5-(5-(difluoromethyl)-1,3,4-oxadiazol-2-yl)pyridin-2-yl)methyl)-4-fluoro-N-phenylpiperidine-4-carboxamide], at human recombinant HDAC1, the IC50 stood at 44000 nM. Also, on human recombinant HDAC6, the “HDAC6 selectivity (fold)” value stood at 543 fold and the IC50 came to 80.9 nM.

Turning to `CN1CCC(F)(C(=O)N(Cc2ccc(-c3nnc(C(F)F)o3)cn2)c2cccc(F)c2)CC1` [Compound 2969, N-((5-(5-(difluoromethyl)-1,3,4-oxadiazol-2-yl)pyridin-2-yl)methyl)-4-fluoro-N-(3-fluorophenyl)-1-methylpiperidine-4-carboxamide], the IC50 on human recombinant HDAC1 was greater than 50000 nM. At human recombinant HDAC6, the “HDAC6 selectivity (fold)” value is on record as 1,298 fold and the IC50 turned out to be 38.5 nM.

For the molecule `CC(C)N1CCC(F)(C(=O)N(Cc2ccc(-c3nnc(C(F)F)o3)cn2)c2cccc(F)c2)CC1` [Compound 2970, N-((5-(5-(difluoromethyl)-1,3,4-oxadiazol-2-yl)pyridin-2-yl)methyl)-4-fluoro-N-(3-fluorophenyl)-1-isopropylpiperidine-4-carboxamide], the IC50 on human recombinant HDAC1 was greater than 50000 nM. Further, at human recombinant HDAC6, the “HDAC6 selectivity (fold)” value is reported as 1,046 fold and the concentration for half-maximal inhibition (IC50) is 47.8 nM.

Regarding `O=C(N(Cc1ccc(-c2nnc(C(F)F)o2)cn1)c1cccc(F)c1)C1(F)CCN(C2CCC2)CC1` [Compound 2971, 1-cyclobutyl-N-((5-(5-(difluoromethyl)-1,3,4-oxadiazol-2-yl)pyridin-2-yl)methyl)-4-fluoro-N-(3-fluorophenyl)piperidine-4-carboxamide], the IC50 was greater than 50000 nM at human recombinant HDAC1 and 67.5 nM on human recombinant HDAC6. On human recombinant HDAC6, the “HDAC6 selectivity (fold)” value is on record as 740 fold.

As for `O=C(N(Cc1ccc(-c2nnc(C(F)F)o2)cn1)c1cccc(F)c1)C1(F)CCN(C2COC2)CC1` [Compound 2972, N-((5-(5-(difluoromethyl)-1,3,4-oxadiazol-2-yl)pyridin-2-yl)methyl)-4-fluoro-N-(3-fluorophenyl)-1-(oxetan-3-yl)piperidine-4-carboxamide], the IC50 at human recombinant HDAC1 was greater than 50000 nM. At human recombinant HDAC6, the “HDAC6 selectivity (fold)” value is on record as 1,190 fold and the IC50 came out at 42 nM.

Regarding `CN1CC(F)(C(=O)N(Cc2ccc(-c3nnc(C(F)F)o3)cn2)c2ccccc2)C1` [Compound 2973, N-((5-(5-(difluoromethyl)-1,3,4-oxadiazol-2-yl)pyridin-2-yl)methyl)-3-fluoro-1-methyl-N-phenylazetidine-3-carboxamide], the IC50 on human recombinant HDAC1 was greater than 50000 nM. In addition, at human recombinant HDAC6, the “HDAC6 selectivity (fold)” value is recorded as 1,075 fold and the IC50 was determined as 46.5 nM.

As to `CC(C)N1CC(F)(C(=O)N(Cc2ccc(-c3nnc(C(F)F)o3)cn2)c2ccccc2)C1` [Compound 2974, N-((5-(5-(difluoromethyl)-1,3,4-oxadiazol-2-yl)pyridin-2-yl)methyl)-3-fluoro-1-isopropyl-N-phenylazetidine-3-carboxamide], on human recombinant HDAC1, the IC50 is greater than 50000 nM. Besides, at human recombinant HDAC6, the “HDAC6 selectivity (fold)” value is given as 1,054 fold and the IC50 came to 47.4 nM.

In the case of `O=C(N(Cc1ccc(-c2nnc(C(F)F)o2)cn1)c1ccccc1)C1(F)CN(C2CCC2)C1` [Compound 2975, 1-cyclobutyl-N-((5-(5-(difluoromethyl)-1,3,4-oxadiazol-2-yl)pyridin-2-yl)methyl)-3-fluoro-N-phenylazetidine-3-carboxamide], the IC50 at human recombinant HDAC1 was greater than 50000 nM. Also, on human recombinant HDAC6, the “HDAC6 selectivity (fold)” value is on record as 1,022 fold and the IC50 is 48.9 nM.

In the case of `O=C(N(Cc1ccc(-c2nnc(C(F)F)o2)cn1)c1cccc(F)c1)C1(F)CN(C2CCCC2)C1` [Compound 3051, 1-cyclopentyl-N-((5-(5-(difluoromethyl)-1,3,4-oxadiazol-2-yl)pyridin-2-yl)methyl)-3-fluoro-N-(3-fluorophenyl)azetidine-3-carboxamide], the IC50 on human recombinant HDAC1 was greater than 50000 nM.

Consider `COCCC(=O)N1CC(F)(C(=O)N(Cc2ccc(-c3nnc(C(F)F)o3)cn2)c2cccc(F)c2)C1` [Compound 3167, N-((5-(5-(difluoromethyl)-1,3,4-oxadiazol-2-yl)pyridin-2-yl)methyl)-3-fluoro-N-(3-fluorophenyl)-1-(3-methoxypropanoyl)azetidine-3-carboxamide], for which, at human recombinant HDAC1, the half-maximal inhibitory concentration (IC50) was greater than 50000 nM.

In the case of `O=C(N1CCC(F)(C(=O)N(Cc2ccc(-c3nnc(C(F)F)o3)cc2F)c2ccccc2)CC1)C(F)(F)F` [Compound 3441, N-(4-(5-(difluoromethyl)-1,3,4-oxadiazol-2-yl)-2-fluorobenzyl)-4-fluoro-N-phenyl-1-(2,2,2-trifluoroacetyl)piperidine-4-carboxamide], the IC50 on human recombinant HDAC1 is greater than 50000 nM.
